Test results as given in patent US20260250318A1, “COMPOSITIONS AND METHODS FOR CROSSING THE BLOOD BRAIN BARRIER” (VOYAGER THERAPEUTICS, INC., priority 2022, published 2026).

What was measured:
[1] = test system: brains, heart, liver, muscle, and DRG of the NHPs; test: Maturation of TTM-001 and TTM-002 capsids, NGS enrichment in NHP tissues; format: in vivo; details: relative to AAV9 control
Method in brief: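 Variants carry mutations within and flanking the loop IV peptide insert: positions 450–466 were triplet-randomized, while positions 449–466 received low-frequency point mutations. The combined pool went into two NHPs, and each peptide was scored by NGS enrichment ratio against AAV9.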

[2] = test system: brain; test: Matured TTM-001 and TTM-002 variants, NGS enrichment in mouse brain; format: in vivo, mice; details: relative to AAV9 control
[3] = NGS fold-enrichment of RNA, NHP brain
[4] = NGS fold-enrichment, DRG of NHPs
[5] = NGS fold-enrichment, NHP liver DNA
[6] = NGS fold-enrichment, NHP liver RNA
[7] = NGS fold-enrichment, NHP muscle
[8] = NGS fold-enrichment, RNA, brain of NHPs
[9] = NGS fold-enrichment, heart of NHPs
[10] = NGS fold-enrichment, liver DNA of NHPs
[11] = NGS fold-enrichment, liver RNA of NHPs
[12] = NGS fold-enrichment, muscle of NHPs
[13] = NGS fold-enrichment, brain of mice
[14] = NGS fold-enrichment, mouse brain
[15] = NGS fold-enrichment of matured AAV capsid variants, NHP brain, RNA

Sequence	Fold Enrichment relative to AAV9, DRG (NHP) [1, 4] [fold]	Fold Enrichment relative to AAV9, Brain (NHP) [1, 8] [fold]	Fold Enrichment relative to AAV9, Heart (NHP) [1, 9] [fold]	Fold Enrichment relative to AAV9, Liver DNA (NHP) [1, 10] [fold]	Fold Enrichment relative to AAV9, Liver RNA (NHP) [1, 11] [fold]	Fold Enrichment relative to AAV9, Muscle (NHP) [1, 12] [fold]	Fold Enrichment relative to AAV9, Brain (Mouse) [2, 13] [fold]	Fold Enrichment relative to AAV9, Brain (NHP) [1, 15] [fold]	Fold Enrichment relative to AAV9, DRG (NHP) ([1]; NHP DRG) [fold]	Fold Enrichment relative to AAV9, Heart (NHP) ([1]; NHP heart) [fold]	Fold Enrichment relative to AAV9, Liver DNA (NHP) ([1]; NHP liver, DNA) [fold]	Fold Enrichment relative to AAV9, Liver RNA (NHP) ([1]; NHP liver, RNA) [fold]	Fold Enrichment relative to AAV9, Muscle (NHP) ([1]; NHP muscle) [fold]	Fold Enrichment relative to AAV9, Brain (Mouse) ([2]; mouse brain) [fold]	further results
KTINGSGSPHSKALHQHT	0.000	77.502	0.052	0.188	0.000	0.041	68.196								Fold Enrichment relative to AAV9, Brain (NHP) [1, 3]: 77.502 fold; Fold Enrichment relative to AAV9, DRG (NHP) ([1]; NGS fold-enrichment, NHP DRG): 0.000 fold; Fold Enrichment relative to AAV9, Heart (NHP) ([1]; NGS fold-enrichment, NHP heart): 0.052 fold; Fold Enrichment relative to AAV9, Liver DNA (NHP) [1, 5]: 0.188 fold; Fold Enrichment relative to AAV9, Liver RNA (NHP) [1, 6]: 0.000 fold; Fold Enrichment relative to AAV9, Muscle (NHP) [1, 7]: 0.041 fold; Fold Enrichment relative to AAV9, Brain (Mouse) [2, 14]: 68.196 fold
KTINGSGSPHSKALMRQT								57.234	0.060	0.036	0.517	1.798	0.100	81.332	
KTINGSGSPHSKALNRQS	0.136	96.843	0.532	0.178	0.042	0.000	55.945								Fold Enrichment relative to AAV9, Brain (NHP) [1, 3]: 96.843 fold; Fold Enrichment relative to AAV9, DRG (NHP) ([1]; NGS fold-enrichment, NHP DRG): 0.136 fold; Fold Enrichment relative to AAV9, Heart (NHP) ([1]; NGS fold-enrichment, NHP heart): 0.532 fold; Fold Enrichment relative to AAV9, Liver DNA (NHP) [1, 5]: 0.178 fold; Fold Enrichment relative to AAV9, Liver RNA (NHP) [1, 6]: 0.042 fold; Fold Enrichment relative to AAV9, Muscle (NHP) [1, 7]: 0.000 fold; Fold Enrichment relative to AAV9, Brain (Mouse) [2, 14]: 55.945 fold
KTINGSGSPHSKAPGLQT	0.007	62.043	0.000	0.210	0.651	0.005	144.610								
KTINGSGSPHSKAPGQQT								54.071	0.065	0.000	0.179	0.542	0.004	73.440	
KTINGSGSPHSKAPNLQI								58.022	0.000	0.044	0.243	1.548	0.000	55.714	
KTINGSGSPHSKAPSLQT								52.137	0.041	1.614	0.222	0.902	0.002	70.363	
KTINGSGSPHSKAPSMQT								50.249	0.000	0.000	0.460	0.941	0.004	75.504	
KTINGSGSPHSKAPSNQT								52.680	1.494	4.762	0.208	0.330	0.003	87.951	
KTINGSGSPHSKAQAFHT	0.033	70.159	0.000	0.119	0.762	0.058	86.268								
